Results on one molecule are retold here after patent US11477967B2, “Microfluidic device, system and methods thereof for measuring and recording electrical signals from a pool of multiple nematodes” (NemaMetrix Inc., priority 2018, dated 2022).

Holding throughout (format): in vivo, C. elegans
One assay deals with nematodes. The assay can be described thus: single-nematode EPG recordings (ScreenChip System) and synthetic composite EPG summed from them. The method, then:
(§1) To obtain nematodes of a consistent size that were compatible with the dimensions of the recording channel 120, we utilized a common procedure to obtain a large number of age synchronized eggs. Eggs were deposited in a culture plate containing food and cultivated at 20 C for 3 days, yielding a large population of young adult nematodes.
To prepare nematodes for recording, 2 mL of “normal M9 buffer solution,” defined in Table 3, was added to a culture plate containing young adult nematodes grown from synchronized eggs. The plate was swirled to lift nematodes into the solution and the contents were poured into a 2 mL Eppendorf tube. Nematodes were cleaned of adherent bacteria and debris by 5 cleaning cycles each of which involved pelleting nematodes in a centrifuge (1.2 g, 30 sec), drawing off the supernatant, and resuspending in M9 buffer. […]
According to circuit theory, (i) the waveform of a composite EPG recorded at electrodes 135 and 145 should be the sum of the voltage differences generated by each nematode at its unique location and orientation with respect to the electrodes and other nematodes, and (ii) the peak frequency of the waveform's power spectrum should represent the average pumping frequency of the population of nematodes between the electrodes. […]

Assay [1] concerns pool of multiple nematodes. The assay can be described thus: composite EPG from a pool of multiple nematodes, microfluidic device 100 / system 200. As to conditions: approximately 25 nematodes between electrodes, serotonin M9 buffer solution (10 mM serotonin); peak absent in normal M9 buffer; FIG. 4C. The method, then:
as §1
To prepare nematodes for recording, 2 mL of “normal M9 buffer solution,” defined in Table 3, was added to a culture plate containing young adult nematodes grown from synchronized eggs. The plate was swirled to lift nematodes into the solution and the contents were poured into a 2 mL Eppendorf tube. Nematodes were cleaned of adherent bacteria and debris by 5 cleaning cycles each of which involved pelleting nematodes in a centrifuge (1.2 g, 30 sec), drawing off the supernatant, and resuspending in M9 buffer. To stimulate pharyngeal pumping, the final resuspension used “serotonin M9 buffer solution” which contained 10 mM serotonin in addition to the constituents in Table 3. […]
Two lines of evidence indicate that the recorded activity represents pharyngeal pumping.

The subject of assay [2] is pool of multiple nematodes. Put plainly: composite EPG from a pool of multiple nematodes, microfluidic device 500 / system 600, Solution A versus Solution B. The settings on record: same pool of nematodes; Solution A normal M9 buffer 16 min, Solution B serotonin M9 buffer 25 min; FIG. 7C. From the text:
To obtain nematodes of a consistent size that were compatible with the dimensions of the recording channel 515, we used the method of Example 2. Alternative methods using filters can also be used to obtain an age/size synchronized population of nematodes for use. See US Patent Publ. No. 2019/0090458.
To prepare nematodes for recording, we used the method of Example 2, except that the final resuspension used “normal M9 buffer solution,” defined in Table 3.
For filling the microfluidic device, we used the method of Example 2, except that the syringe and tubing were filled with “normal M9 buffer solution.”
At the end of this recording, the normal M9 buffer solution was replaced with Solution B, serotonin M9 buffer solution disclosed in Example 1, without dislodging the original pool of nematodes. Replacement was accomplished by exchanging the syringe and tubing filled with normal M9 buffer solution for a syringe and tubing filled with serotonin M9 buffer solution. […]
The center frequency of this peak is within the expected range of pharyngeal pumping frequency. […] However, as the same population of nematodes was recorded under conditions of the two different buffer solutions in FIG. 7C, but not in FIG. 4C, FIG. 7C establishes, in addition, that the system 600 can be used to measure the effect of drugs or other test compounds on pharyngeal pumping. […]

The molecule `NCCc1c[nH]c2ccc(O)cc12` [serotonin] gave an average pumping frequency in the assay with nematodes (22 nematodes, single-nematode EPGs in serotonin M9 buffer solution (10 mM serotonin), 10-14 min, ± SEM) of 4.9±0.13 Hz. For the same molecule, the “peak frequency of power spectrum of synthetic (in silico) composite EPG recording” value in the assay with nematodes (sum of all 22 single-nematode EPG measurements in serotonin M9 buffer solution (10 mM serotonin), FIG. 3E) was 5.1 Hz. Also, the “peak of power spectrum of composite EPG” value in assay [1] came out at 5.6 Hz. In assay [2], the “center frequency of peak of difference trace between power spectra of Solution B and Solution A” value is 5 Hz.
